The text below walks through data of article PMC3162300 (Journal of Natural Products, 2011).

This assay deals with T1, IKK2 (Homo sapiens, UniProt O14920).
T1 sequence (O14920 1-756): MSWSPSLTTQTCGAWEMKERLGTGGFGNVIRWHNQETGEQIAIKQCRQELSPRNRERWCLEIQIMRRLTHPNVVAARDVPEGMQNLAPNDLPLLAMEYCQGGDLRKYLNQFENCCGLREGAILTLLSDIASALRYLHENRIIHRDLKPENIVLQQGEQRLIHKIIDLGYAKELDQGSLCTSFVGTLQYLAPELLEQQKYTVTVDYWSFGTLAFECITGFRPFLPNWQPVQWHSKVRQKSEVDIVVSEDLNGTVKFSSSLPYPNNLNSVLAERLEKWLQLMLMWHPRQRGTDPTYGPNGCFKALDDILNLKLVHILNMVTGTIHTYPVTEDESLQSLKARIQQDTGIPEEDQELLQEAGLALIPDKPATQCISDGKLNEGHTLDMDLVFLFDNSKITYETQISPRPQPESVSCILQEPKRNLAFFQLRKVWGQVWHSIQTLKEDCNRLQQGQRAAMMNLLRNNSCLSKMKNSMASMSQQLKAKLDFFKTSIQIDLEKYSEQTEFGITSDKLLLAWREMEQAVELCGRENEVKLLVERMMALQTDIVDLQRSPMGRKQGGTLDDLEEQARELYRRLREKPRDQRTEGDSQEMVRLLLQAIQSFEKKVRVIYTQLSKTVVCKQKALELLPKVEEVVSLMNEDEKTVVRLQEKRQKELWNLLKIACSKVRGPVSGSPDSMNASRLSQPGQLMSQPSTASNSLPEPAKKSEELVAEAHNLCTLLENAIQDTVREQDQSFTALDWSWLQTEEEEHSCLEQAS
Description: IKK2 enzymatic activity assay. The settings on record: 400 nM. The format is biochemical.

As for `NC(=O)Nc1sc(-c2ccc(F)cc2)cc1C(N)=O` [IKK2 inhibitor IV], the “effect on IKK2 enzymatic activity” value was “completely suppressed IKK2 enzymatic activity to the background level”.
